Assay results published in PMC9012672 (Clinical cancer research : an official journal of the …, 2022).

How the values were obtained:
rats = assay: 3-month rat toxicology study; format: in vivo
CYP3A4 = CYP3A4 (Homo sapiens, UniProt P08684); assay: Metabolism of sotorasib; format: in vitro ADME
patients with NSCLC = assay: CodeBreaK 100; format: in vivo
[1] = Clinical pharmacology: elimination, food effect, covariate effects on exposure; conditions: human, in vivo
Beagle dogs = conditions: 3-month dog study; cited from earlier work
[2] = CodeBreaK 100 multiple-dose PK; format: in vivo, human; conditions: for AUC(0-t) / Cmax / Tmax / half-life: human, plasma, po
[3] = 204 patients with NSCLC, 960 mg daily

Sequence of CYP3A4 (P08684 whole entry): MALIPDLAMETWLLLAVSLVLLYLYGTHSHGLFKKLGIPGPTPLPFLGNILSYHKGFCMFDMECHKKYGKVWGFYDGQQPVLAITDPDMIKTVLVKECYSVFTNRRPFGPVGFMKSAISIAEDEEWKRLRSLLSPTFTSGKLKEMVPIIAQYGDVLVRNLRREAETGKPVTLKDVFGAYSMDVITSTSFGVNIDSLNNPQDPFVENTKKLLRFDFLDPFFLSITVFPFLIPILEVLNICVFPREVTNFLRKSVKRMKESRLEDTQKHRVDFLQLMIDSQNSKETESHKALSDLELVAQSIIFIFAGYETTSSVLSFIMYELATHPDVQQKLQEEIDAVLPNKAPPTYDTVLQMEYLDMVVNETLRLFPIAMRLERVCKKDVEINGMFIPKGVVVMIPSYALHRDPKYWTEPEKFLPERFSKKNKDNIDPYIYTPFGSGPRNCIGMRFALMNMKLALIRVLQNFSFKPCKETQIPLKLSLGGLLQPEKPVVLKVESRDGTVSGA

C=CC(=O)N1CCN(c2nc(=O)n(-c3c(C)ccnc3C(C)C)c3nc(-c4c(O)cccc4F)c(F)cc23)[C@@H](C)C1 [sotorasib]
Most notable toxicity (renal toxicity) findings (rats; 3-month rat study): renal tubular degeneration/necrosis and increased kidney weight with biomarkers of renal tubular injury | Recovery of renal toxicity (rats; after two months): Partial recovery | Main metabolising enzyme (CYP3A4): primarily metabolized by CYP3A4 | Adverse event: abdominal pain (patients with NSCLC; [3]): 15% | Adverse event: constipation (patients with NSCLC; [3]): 16% | Adverse event: cough (patients with NSCLC; [3]): 20% | Adverse event: decreased appetite (patients with NSCLC; [3]): 13% | Adverse event: diarrhea (patients with NSCLC; [3]): 42% | Adverse event: dyspnea (patients with NSCLC; [3]): 16% | Adverse event: edema (patients with NSCLC; [3]): 15% | Adverse event: musculoskeletal pain (patients with NSCLC; [3]): 35% | Adverse event: pneumonia (patients with NSCLC; [3]): 12% | Adverse event: rash (patients with NSCLC; [3]): 12% | Adverse event: vomiting (patients with NSCLC; [3]): 17% | Discontinuation due to hepatotoxicity (patients with NSCLC; [3]): 4.9% | Permanent discontinuation due to an AE (patients with NSCLC; [3]): 9% | Serious AE: diarrhea (patients with NSCLC; [3]): 2% | Serious AE: hepatotoxicity (patients with NSCLC; [3]): 3.4% | Serious AE: pneumonia (patients with NSCLC; [3]): 8% | Serious AEs, patients (patients with NSCLC; [3]): 50% | Adverse event: hepatotoxicity (patients with NSCLC; 204 patients with NSCLC, 960 mg daily, grouped term): 25% | Resolution of hepatotoxicity after dose reduction or interruption (patients with NSCLC; cases with dose reduction or interruption): 91% | Patients with hepatotoxicity requiring dose reduction or interruption (patients with NSCLC; of the 50 patients with an event of hepatotoxicity (n=23)): 46% | Patients with hepatotoxicity treated with systemic corticosteroids (patients with NSCLC; of the 357 patients treated with 960 mg daily): 5% | Most common adverse reactions (≥20%) (patients with NSCLC; patients with NSCLC in CodeBreaK 100): diarrhea, musculoskeletal pain, nausea, fatigue, hepatotoxicity, and cough | Hepatotoxicity events that were severe (Grade 3 or 4) (patients with NSCLC; primary safety population): 12% | Renal toxicity events (patients with NSCLC; primary safety population): rare, mild to moderate, and did not require dose reduction or discontinuation | Interstitial lung disease/pneumonitis (patients with NSCLC; primary safety population, three patients, one fatal case): 1.5% | Food effect on administration [1]: may be taken with or without food | Route of elimination [1]: mainly eliminated via the fecal route with minor renal excretion | Renal toxicity (Beagle dogs): not identified | Systemic exposures (AUC0–24h and Cmax) across dose levels ([2]; daily doses ranging from 180 mg to 960 mg): similar | AUC(0-t) ([2]; 180 mg): 31700 ng·h/mL | Cmax ([2]; 180 mg): 6440 ng/mL | Tmax ([2]; 180 mg): 0.73 h | half-life ([2]; 180 mg): 5.13 h | AUC(0-t) ([2]; 360 mg): 38900 ng·h/mL | Cmax ([2]; 360 mg): 6310 ng/mL | half-life ([2]; 360 mg): 5.53 h | AUC(0-t) ([2]; 720 mg): 42100 ng·h/mL | Cmax ([2]; 720 mg): 5450 ng/mL | Tmax ([2]; 720 mg): 1.1 h | half-life ([2]; 720 mg): 4.75 h | AUC(0-t) ([2]; 960 mg): 32400 ng·h/mL | Cmax ([2]; 960 mg): 5390 ng/mL | Tmax ([2]; 960 mg): 1.1 h | half-life ([2]; 960 mg): 5.07 h
